Reference: ChEMBL document CHEMBL1151687, “Search for alpha-helical propensity in the receptor-bound conformation of glucagon-like peptide-1” (Bioorg Med Chem, 2008)
Positions of bridges follow the written chain, without caps; N, C: chain ends. Residues, ends and D or L forms follow the SMILES beside them.

What was measured:
[1] = target: T1, Glucagon-like peptide 1 receptor (Homo sapiens, UniProt P43220); assay: Displacement of [125I]exendin(9-39) from human GLP1R expressed in HEK293 cells; assay type: cell-based
[2] = target: T1, Glucagon-like peptide 1 receptor; assay: Activation of human GLP1R expressed in HEK293 cells assessed as effect on cAMP responsive element promoter driven luciferase expression; assay type: functional, cell-based

T1 sequence (P43220 whole entry): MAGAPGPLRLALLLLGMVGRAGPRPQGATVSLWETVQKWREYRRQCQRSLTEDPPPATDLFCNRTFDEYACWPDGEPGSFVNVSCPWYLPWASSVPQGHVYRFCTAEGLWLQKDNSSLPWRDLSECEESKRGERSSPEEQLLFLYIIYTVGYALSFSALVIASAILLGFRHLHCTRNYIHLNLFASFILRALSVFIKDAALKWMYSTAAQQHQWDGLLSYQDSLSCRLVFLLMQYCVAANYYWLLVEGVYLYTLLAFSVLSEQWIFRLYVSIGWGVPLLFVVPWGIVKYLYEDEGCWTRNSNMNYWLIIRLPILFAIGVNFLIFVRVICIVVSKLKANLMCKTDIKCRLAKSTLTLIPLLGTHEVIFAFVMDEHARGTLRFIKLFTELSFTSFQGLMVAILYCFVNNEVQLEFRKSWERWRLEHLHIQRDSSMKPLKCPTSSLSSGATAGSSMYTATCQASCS

Row | Compound | IC50 [1] | EC50 [2] | IC50 ([1]; hek293) | EC50 ([2]; hek293)
1 | CC[C@H](C)[C@H](NC(=O)[C@H](CCC(=O)O)NC(=O)[C@H](CCCCN)NC(=O)[C@H](C)NC(=O)[C@H](C)NC(=O)[C@H](CCC(N)=O)NC(=O)CNC(=O)[C@H](CCC(=O)O)NC(=O)[C@H](CCC(N)=O)NC(=O)[C@H](Cc1ccc(O)cc1)NC(=O)[C@H](CO)NC(=O)[C@H](CO)NC(=O)[C@H](CCCCNC(C)=O)NC(=O)[C@H](CC(=O)O)NC(=O)[C@H](CO)NC(=O)[C@@H](NC(=O)[C@H](Cc1ccccc1)NC(=O)[C@@H](NC(=O)CNC(=O)[C@H](CCC(=O)O)NC(=O)[C@H](C)NC(=O)[C@@H](N)Cc1cnc[nH]1)[C@@H](C)O)[C@@H](C)O)C(=O)N[C@@H](Cc1ccccc1)C(=O)N[C@@H](C)C(=O)N[C@@H](Cc1c[nH]c2ccccc12)C(=O)N[C@@H](CC(C)C)C(=O)N[C@H](C(=O)N[C@@H](CCCCN)C(=O)NCC(=O)N[C@@H](CCCN=C(N)N)C(N)=O)C(C)C | 6.6 nM | 0.012 nM | – | –
2 | CC[C@H](C)[C@H](NC(=O)[C@H](CCC(=O)O)NC(=O)[C@H](CCCCN)NC(=O)[C@H](C)NC(=O)[C@H](C)NC(=O)[C@H](CCC(N)=O)NC(=O)CNC(=O)[C@H](CCC(=O)O)NC(=O)[C@H](CC(C)C)NC(=O)[C@H](Cc1ccc(O)cc1)NC(=O)[C@H](CO)NC(=O)[C@H](CO)NC(=O)[C@@H](NC(=O)[C@H](CC(=O)O)NC(=O)[C@H](CO)NC(=O)[C@@H](NC(=O)[C@H](Cc1ccccc1)NC(=O)[C@@H](NC(=O)CNC(=O)[C@H](CCC(=O)O)NC(=O)[C@H](C)NC(=O)[C@@H](N)Cc1cnc[nH]1)[C@@H](C)O)[C@@H](C)O)C(C)C)C(=O)N[C@@H](Cc1ccccc1)C(=O)N[C@@H](C)C(=O)N[C@@H](Cc1c[nH]c2ccccc12)C(=O)N[C@@H](CC(C)C)C(=O)N[C@H](C(=O)N[C@@H](CCCCN)C(=O)NCC(=O)N[C@@H](CCCN=C(N)N)C(=O)O)C(C)C (H-HAEGTFTSDVSSYLEGQAAKEIFAWLVKGR-OH) | – | – | 2.6 nM | 0.0036 nM
3 | CC[C@H](C)[C@H](NC(=O)[C@H](CCC(=O)O)NC(=O)[C@H](CCCCN)NC(=O)[C@H](C)NC(=O)[C@H](C)NC(=O)[C@H](CCC(N)=O)NC(=O)CNC(=O)[C@H](CCC(=O)O)NC(=O)[C@H](CC(C)C)NC(=O)[C@H](Cc1ccc(O)cc1)NC(=O)[C@H](CCC(N)=O)NC(=O)[C@H](CO)NC(=O)[C@@H](NC(=O)[C@H](CC(=O)O)NC(=O)[C@H](CCCCNC(C)=O)NC(=O)[C@@H](NC(=O)[C@H](Cc1ccccc1)NC(=O)[C@@H](NC(=O)CNC(=O)[C@H](CCC(=O)O)NC(=O)[C@H](C)NC(=O)[C@@H](N)Cc1cnc[nH]1)[C@@H](C)O)[C@@H](C)O)C(C)C)C(=O)N[C@@H](Cc1ccccc1)C(=O)N[C@@H](C)C(=O)N[C@@H](Cc1c[nH]c2ccccc12)C(=O)N[C@@H](CC(C)C)C(=O)N[C@H](C(=O)N[C@@H](CCCCN)C(=O)NCC(=O)N[C@@H](CCCN=C(N)N)C(N)=O)C(C)C (H-HAEGTFTK(Ac)DVSQYLEGQAAKEIFAWLVKGR-NH2) | 230 nM | 16 nM | – | –

Further lines, results first:

Row | IC50 [1] | EC50 [2] | IC50 ([1]; hek293) | EC50 ([2]; hek293) | Compound
4 | – | – | 110 nM | 0.38 nM | CC[C@H](C)[C@H](NC(=O)[C@H](Cc1ccccc1)NC(=O)[C@H](CCC(=O)O)NC(=O)[C@H](CCCCN)NC(=O)[C@H](C)NC(=O)[C@H](C)NC(=O)[C@H](CCC(N)=O)NC(=O)CNC(=O)[C@H](CCC(=O)O)NC(=O)[C@H](CC(C)C)NC(=O)[C@H](Cc1ccc(O)cc1)NC(=O)[C@H](CO)NC(=O)[C@H](CO)NC(=O)[C@@H](NC(=O)[C@@H]1CCC(=O)NCCCC[C@H](NC(=O)CNC(=O)[C@H](CCC(=O)O)NC(=O)[C@H](C)NC(=O)[C@@H](N)Cc2cnc[nH]2)C(=O)N[C@@H](Cc2ccccc2)C(=O)N[C@@H]([C@@H](C)O)C(=O)N[C@@H](CO)C(=O)N1)C(C)C)C(=O)N[C@@H](C)C(=O)N[C@@H](Cc1c[nH]c2ccccc12)C(=O)N[C@@H](CC(C)C)C(=O)N[C@H](C(=O)N[C@@H](CCCCN)C(=O)NCC(=O)N[C@@H](CCCNC(=N)N)C(N)=O)C(C)C (H-HAEGKFTSEVSSYLEGQAAKEFIAWLVKGR-NH2; lactam 5-9)
5 | 15.1 nM | 0.002 nM | – | – | CC[C@H](C)[C@H](NC(=O)[C@H](Cc1ccccc1)NC(=O)[C@H](CCC(=O)O)NC(=O)[C@H](CCCCN)NC(=O)[C@H](C)NC(=O)[C@H](C)NC(=O)[C@H](CCC(N)=O)NC(=O)[C@@H]1CCC(=O)NCCCC[C@H](NC(=O)[C@H](CO)NC(=O)[C@@H](NC(=O)[C@H](CC(=O)O)NC(=O)[C@H](CO)NC(=O)[C@@H](NC(=O)[C@H](Cc2ccccc2)NC(=O)[C@@H](NC(=O)CNC(=O)[C@H](CCC(=O)O)NC(=O)[C@H](C)NC(=O)[C@@H](N)Cc2cnc[nH]2)[C@@H](C)O)[C@@H](C)O)C(C)C)C(=O)N[C@@H](Cc2ccc(O)cc2)C(=O)N[C@@H](CC(C)C)C(=O)N[C@@H](CCC(=O)O)C(=O)N1)C(=O)N[C@@H](C)C(=O)N[C@@H](Cc1c[nH]c2ccccc12)C(=O)N[C@@H](CC(C)C)C(=O)N[C@H](C(=O)N[C@@H](CCCCN)C(=O)NCC(=O)N[C@@H](CCCN=C(N)N)C(N)=O)C(C)C (H-HAEGTFTSDVSKYLEEQAAKEFIAWLVKGR-NH2; lactam 12-16)
6 | – | – | 210 nM | 8.4 nM | CC[C@H](C)[C@H](NC(=O)[C@H](Cc1ccccc1)NC(=O)[C@H](CCC(=O)O)NC(=O)[C@H](CCCCN)NC(=O)[C@H](C)NC(=O)[C@H](C)NC(=O)[C@H](CCC(N)=O)NC(=O)CNC(=O)[C@H](CCC(=O)O)NC(=O)[C@H](CC(C)C)NC(=O)[C@H](Cc1ccc(O)cc1)NC(=O)[C@@H]1CCC(=O)NCCCC[C@H](NC(=O)[C@@H](NC(=O)[C@H](Cc2ccccc2)NC(=O)[C@@H](NC(=O)CNC(=O)[C@H](CCC(=O)O)NC(=O)[C@H](C)NC(=O)[C@@H](N)Cc2cnc[nH]2)[C@@H](C)O)[C@@H](C)O)C(=O)N[C@@H](CC(=O)O)C(=O)N[C@@H](C(C)C)C(=O)N[C@@H](CO)C(=O)N1)C(=O)N[C@@H](C)C(=O)N[C@@H](Cc1c[nH]c2ccccc12)C(=O)N[C@@H](CC(C)C)C(=O)N[C@H](C(=O)N[C@@H](CCCCN)C(=O)NCC(=O)N[C@@H](CCCNC(=N)N)C(N)=O)C(C)C (H-HAEGTFTKDVSEYLEGQAAKEFIAWLVKGR-NH2; lactam 8-12)
7 | – | – | 9200 nM | 1.1 nM | CC[C@H](C)[C@H](NC(=O)[C@H](Cc1ccccc1)NC(=O)[C@H](CCC(=O)O)NC(=O)[C@H](CCCCN)NC(=O)[C@@H]1CCC(=O)NCCCC[C@H](NC(=O)[C@H](CC(C)C)NC(=O)[C@H](Cc2ccc(O)cc2)NC(=O)[C@H](CO)NC(=O)[C@H](CO)NC(=O)[C@@H](NC(=O)[C@H](CC(=O)O)NC(=O)[C@H](CO)NC(=O)[C@@H](NC(=O)[C@H](Cc2ccccc2)NC(=O)[C@@H](NC(=O)CNC(=O)[C@H](CCC(=O)O)NC(=O)[C@H](C)NC(=O)[C@@H](N)Cc2cnc[nH]2)[C@@H](C)O)[C@@H](C)O)C(C)C)C(=O)NCC(=O)N[C@@H](CCC(N)=O)C(=O)N[C@@H](C)C(=O)N1)C(=O)N[C@@H](C)C(=O)N[C@@H](Cc1c[nH]c2ccccc12)C(=O)N[C@@H](CC(C)C)C(=O)N[C@H](C(=O)N[C@@H](CCCCN)C(=O)NCC(=O)N[C@@H](CCCNC(=N)N)C(N)=O)C(C)C (H-HAEGTFTSDVSSYLKGQAEKEFIAWLVKGR-NH2; lactam 15-19)
